Legend:
Experiment in all cases: relative viability (nuclei count vs DMSO), 5 days (fraction); higher = more cells survive
201T = system: 201T
Procedure, shortened: (§1)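 Relative viability divides the nuclei count in treated wells by that in vehicle wells. Lung cancer cell lines were seeded in 1536-well plates, dosed by pin tool the next day, and fixed and stained after 5 days in one step with final 0.05% Triton X-100, 1% formaldehyde and 1 ug/ml Hoechst. Dosing was a single drug or a fixed anchor-drug dose plus five library-drug doses (not always all listed) in √10 steps, and values are medians of duplicate plates imaged at 4×.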

BEN = system: BEN
Procedure, shortened: as §1

HCC-44 = system: HCC-44
Procedure, shortened: as §1

HCC-827 = system: HCC-827
Procedure, shortened: as §1

HOP-62 = system: HOP-62
Procedure, shortened: as §1

LCLC-103H = system: LCLC-103H
Procedure, shortened: as §1

LCLC-97TM1 = system: LCLC-97TM1
Procedure, shortened: as §1

LXF-289 = system: LXF-289
Procedure, shortened: as §1

NCI-H1395 = system: NCI-H1395
Procedure, shortened: as §1

NCI-H1437 = system: NCI-H1437
Procedure, shortened: as §1

NCI-H1650 = settings: first compound 0.005 µM
Procedure, shortened: as §1

## CC1(C)CCC(c2ccc(Cl)cc2)=C(CN2CCN(c3ccc(C(=O)NS(=O)(=O)c4ccc(N[C@H](CCN5CCOCC5)CSc5ccccc5)c(S(=O)(=O)C(F)(F)F)c4)cc3)CC2)C1 [Navitoclax] + Nc1ncn([C@H]2C[C@H](O)[C@@H](CO)O2)c(=O)n1 [Decitabine] (partner 2 µM)
201T; first compound 0.005 µM
  relative viability: 0.891
201T; first compound 0.01581 µM
  relative viability: 0.869
201T; first compound 0.05 µM
  relative viability: 0.77
201T; first compound 0.1581 µM
  relative viability: 0.824
201T; first compound 0.5 µM
  relative viability: 0.859
BEN; first compound 0.005 µM
  relative viability: 0.784
BEN; first compound 0.01581 µM
  relative viability: 0.803
BEN; first compound 0.05 µM
  relative viability: 0.734
BEN; first compound 0.1581 µM
  relative viability: 0.712
BEN; first compound 0.5 µM
  relative viability: 0.443
HCC-44; first compound 0.005 µM
  relative viability: 0.921
HCC-44; first compound 0.01581 µM
  relative viability: 0.867
HCC-44; first compound 0.05 µM
  relative viability: 0.903
HCC-44; first compound 0.1581 µM
  relative viability: 0.861
HCC-44; first compound 0.5 µM
  relative viability: 0.898
HCC-827; first compound 0.005 µM
  relative viability: 0.364
HCC-827; first compound 0.01581 µM
  relative viability: 0.325
HCC-827; first compound 0.05 µM
  relative viability: 0.314
HCC-827; first compound 0.1581 µM
  relative viability: 0.327
HCC-827; first compound 0.5 µM
  relative viability: 0.31
HOP-62; first compound 0.005 µM
  relative viability: 0.22
HOP-62; first compound 0.01581 µM
  relative viability: 0.21
HOP-62; first compound 0.05 µM
  relative viability: 0.173
HOP-62; first compound 0.1581 µM
  relative viability: 0.191
HOP-62; first compound 0.5 µM
  relative viability: 0.205
LCLC-103H; first compound 0.005 µM
  relative viability: 0.701
LCLC-103H; first compound 0.01581 µM
  relative viability: 0.879
LCLC-103H; first compound 0.05 µM
  relative viability: 0.764
LCLC-103H; first compound 0.1581 µM
  relative viability: 0.703
LCLC-103H; first compound 0.5 µM
  relative viability: 0.698
LCLC-97TM1; first compound 0.005 µM
  relative viability: 0.229
LCLC-97TM1; first compound 0.01581 µM
  relative viability: 0.268
LCLC-97TM1; first compound 0.05 µM
  relative viability: 0.224
LCLC-97TM1; first compound 0.1581 µM
  relative viability: 0.217
LCLC-97TM1; first compound 0.5 µM
  relative viability: 0.271
LXF-289; first compound 0.005 µM
  relative viability: 0.347
LXF-289; first compound 0.01581 µM
  relative viability: 0.389
LXF-289; first compound 0.05 µM
  relative viability: 0.349
LXF-289; first compound 0.1581 µM
  relative viability: 0.349
LXF-289; first compound 0.5 µM
  relative viability: 0.428
NCI-H1395; first compound 0.005 µM
  relative viability: 0.706
NCI-H1395; first compound 0.01581 µM
  relative viability: 0.701
NCI-H1395; first compound 0.05 µM
  relative viability: 0.724
NCI-H1395; first compound 0.1581 µM
  relative viability: 0.713
NCI-H1395; first compound 0.5 µM
  relative viability: 0.699
NCI-H1437; first compound 0.005 µM
  relative viability: 0.549
NCI-H1437; first compound 0.01581 µM
  relative viability: 0.547
NCI-H1437; first compound 0.05 µM
  relative viability: 0.619
NCI-H1437; first compound 0.1581 µM
  relative viability: 0.519
NCI-H1437; first compound 0.5 µM
  relative viability: 0.581
NCI-H1650
  relative viability: 0.43

— the supplement of paper PMC10307832
